Measured values: patent publication US10669268B2, “Bicyclic derivatives” (Hoffmann-La Roche Inc., priority 2012, dated 2020)

Biological target: ATX (human His-tagged) (Homo sapiens (Human), UniProt Q13822)
Experiment: Human ATX enzyme inhibition assay (fluorescence quenching, MR121 substrate)
Assay type: biochemical
Settings: 30 nM ATX, 1 μM MR121 substrate, 30° C., pH 8.0
In short: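 Fluorescence-quenching assay using MR121 substrate at 1 μM final, incubated 15 min at 30 °C. Buffer was 50 mM Tris-HCl pH 8.0 with 140 mM NaCl, 5 mM KCl, 1 mM CaCl2, 1 mM MgCl2 and 0.01% Triton X-100.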

Row | IC50 [µM] | SMILES
1 | 0.282 | O=C(CCc1cc(Cl)cc(Cl)c1)N1C[C@H]2CN(Cc3ccc4[nH]c(=O)oc4c3)C[C@H]2C1 [Example 6.04]
2 | 0.179 | N#Cc1ccc(/C=C/C(=O)N2CC[C@@H]3CN(Cc4ccc5[nH]nnc5c4)C[C@@H]3CC2)cc1 [Example 6.05]
3 | 0.022 | O=C(OCc1cc(Cl)cc(Cl)c1)N1C[C@@H]2CN(S(=O)(=O)c3ccc4[nH]c(=O)oc4c3)C[C@@H]2C1 [Example 7, (3aR,6aS)-3,5-Dichlorobenzyl 5-(2-oxo-2,3-dihydrobenzo[d]oxazol-6-ylsulfonyl)hexahydropyrrolo[3,4-c]pyrrole-2(1H)-carboxylate]
4 | 0.108 | O=C(OCc1cc(Cl)cc(Cl)c1)N1C[C@@H]2CN(C(=O)N3CCc4[nH]nnc4C3)C[C@@H]2C1 [Example 8, (3aR,6aS)-3,5-dichlorobenzyl 5-(4,5,6,7-tetrahydro-1H-[1,2,3]triazolo[4,5-c]pyridine-5-carbonyl)hexahydropyrrolo[3,4-c]pyrrole-2(1H)-carboxylate]
5 | 0.002 | O=C(/C=C/c1ccc(OC(F)(F)F)cc1)N1CC[C@@H]2CN(C(=O)N3CCc4[nH]nnc4C3)C[C@@H]2CC1 [Example 8.01]
6 | 0.186 | O=C(/C=C/c1ccc(OC(F)(F)F)cc1)N1CC[C@@H]2CN(C(=O)N3CCc4[nH]ncc4C3)C[C@@H]2CC1 [Example 8.02]
7 | 0.911 | O=C1N[C@@H]2CCN(C(=O)N3C[C@H]4CCN(C(=O)/C=C/c5ccc(OC(F)(F)F)cc5)CC[C@H]4C3)C[C@@H]2O1 [Example 8.03]
8 | 0.192 | O=C(/C=C/c1ccc(OC(F)(F)F)cc1)N1CC[C@@H]2CN(C(=O)N3CCc4[nH]c(=O)ccc4C3)C[C@@H]2CC1 [Example 8.04]
9 | 0.149 | O=C1N[C@@H]2CCN(C(=O)N3C[C@H]4CCN(C(=O)/C=C/c5ccc(OC(F)(F)F)cc5)CC[C@H]4C3)C[C@H]2O1 [Example 8.05]
10 | 0.192 | O=C(/C=C/c1ccc(OC(F)(F)F)cc1)N1CC[C@@H]2CN(C(=O)N3CCc4ncccc4C3)C[C@@H]2CC1 [Example 8.06]
11 | 1.84 | O=C(/C=C/c1ccc(OC(F)(F)F)cc1)N1CC[C@@H]2CN(C(=O)N3CCn4nc(C(F)(F)F)nc4C3)C[C@@H]2CC1 [Example 8.07]
12 | 0.709 | O=C(/C=C/c1ccc(OC(F)(F)F)cc1)N1CC[C@@H]2CN(C(=O)NCc3cnn[nH]3)C[C@@H]2CC1 [Example 9, (3aR,8aS)—N-((1H-1,2,3-Triazol-5-yl)methyl)-6-((E)-3-(4-(trifluoromethoxy)phenyl)-acryloyl)octahydropyrrolo[3,4-d]azepine-2(1H)-carboxamide]
13 | 0.038 | O=C(/C=C/c1ccc(OC(F)(F)F)cc1)N1CC[C@@H]2CN(C(=O)NCc3cnn[nH]3)C[C@@H]2CC1 [Example 9.01]
14 | 1.6 | O=C(/C=C/c1ccc(OC(F)(F)F)cc1)N1C[C@@H]2CN(C(=O)NCc3c[nH]nn3)C[C@@H]2C1 [Example 9.02]
15 | 0.042 | O=C(/C=C/c1ccc(OC(F)(F)F)c(F)c1)N1CC[C@@H]2CN(C(=O)NCc3cnn[nH]3)C[C@@H]2CC1 [Example 9.03]
16 | 0.713 | O=C(/C=C/c1ccc(OC(F)(F)F)cc1)N1CC[C@@H]2CN(C(=O)NCc3nnc[nH]3)C[C@@H]2CC1 [Example 9.04]
17 | 0.247 | O=C(/C=C/c1ccc(OC(F)(F)F)cc1)N1CC[C@@H]2CN(C(=O)N3CCc4[nH]cnc4C3)C[C@@H]2CC1 [Example 9.06]
18 | 0.074 | CN(Cc1cnn[nH]1)C(=O)N1C[C@H]2CCN(C(=O)/C=C/c3ccc(OC(F)(F)F)cc3)CC[C@H]2C1 [Example 9.07, (3aR,8aS)-N-((1H-1,2,3-triazol-5-yl)methyl)-N-methyl-6-((E)-3-(4-(trifluoromethoxy)phenyl)-acryloyl)octahydro-pyrrolo[3,4-d]azepine-2(1H)-carboxamide]
19 | 3.4 | CC(C)(Cc1cccc(Cl)c1)C(=O)N1CC[C@@H]2CN(C(=O)NCc3cnn[nH]3)C[C@@H]2CC1 [Example 9.08]
20 | 0.162 | O=C(/C=C/c1ccc(OC(F)(F)F)cc1)N1CC[C@@H]2CN(C(=O)NCCc3cnn[nH]3)C[C@@H]2CC1 [Example 9.09, (3aR,8aS)-N-(2-(1H-1,2,3-triazol-5-yl)ethyl)-6-((E)-3-(4-(trifluoromethoxy)-phenyl)acryloyl)octahydropyrrolo[3,4-d]azepine-2(1H)-carboxamide]
21 | 0.007 | NS(=O)(=O)C1CCN(C(=O)N2C[C@H]3CN(C(=O)OCc4ccc(OC(F)(F)F)cc4)C[C@@H]3C2)CC1 [Example 9.10]
22 | 0.036 | O=C(OCc1cc(Cl)cc(Cl)c1)N1CC[C@@H]2CN(C(=O)c3ccc4[nH]nnc4c3)C[C@@H]2C1 [Example 10A, (3aR,7aS)-2-(1H-Benzotriazole-5-carbonyl)-octahydro-pyrrolo[3,4-c]pyridine-5-carboxylic acid 3,5-dichloro-benzyl ester]
23 | 0.118 | O=C(OCc1cc(Cl)cc(Cl)c1)N1CC[C@H]2CN(C(=O)c3ccc4[nH]nnc4c3)C[C@H]2C1 [Example 10B, (3aS,7aR)-2-(1H-benzotriazole-5-carbonyl)-octahydro-pyrrolo[3,4-c]pyridine-5-carboxylic acid 3,5-dichloro-benzyl ester]
24 | 0.026 | O=C(/C=C/c1ccc(OC(F)(F)F)cc1)N1C[C@@H]2CN(C(=O)c3ccc4[nH]nnc4c3)C[C@@H]2C1 [Example 15, (E)-1-((3aR,6aS)-5-(1H-Benzo[d][1,2,3]triazole-5-carbonyl)hexahydropyrrolo[3,4-c]pyrrol-2(1H)-yl)-3-(4-(trifluoromethoxy)phenyl)prop-2-en-1-one]
25 | 1.61 | O=C(c1ccc2[nH]nnc2c1)N1C[C@@H]2CN(C(=O)c3cc4cc(Cl)ccc4[nH]3)C[C@@H]2C1 [Example 15.01]

Row | IC50 [µM] | SMILES
26 | 0.096 | O=C(/C=C/c1cc(F)cc(C(F)(F)F)c1)N1C[C@@H]2CN(C(=O)c3ccc4[nH]nnc4c3)C[C@@H]2C1 [Example 15.02]
27 | 0.362 | O=C(CCc1cc(F)cc(C(F)(F)F)c1)N1C[C@@H]2CN(C(=O)c3ccc4[nH]nnc4c3)C[C@@H]2C1 [Example 15.03]
28 | 2.02 | O=C(c1ccc2[nH]nnc2c1)N1C[C@@H]2CN(C(=O)c3cc4ccc(Cl)cc4[nH]3)C[C@@H]2C1 [Example 15.04]
29 | 0.012 | O=C(/C=C/c1ccc(Cl)cc1)N1CC[C@@H]2CN(C(=O)c3ccc4[nH]nnc4c3)C[C@@H]2CC1 [Example 15.06]
30 | 0.021 | Cc1ccc(/C=C/C(=O)N2CC[C@@H]3CN(C(=O)c4ccc5[nH]nnc5c4)C[C@@H]3CC2)cc1 [Example 15.07]
31 | 0.977 | CN(C)S(=O)(=O)c1ccc(/C=C/C(=O)N2CC[C@@H]3CN(C(=O)c4ccc5[nH]nnc5c4)C[C@@H]3CC2)cc1 [Example 15.08]
32 | 0.042 | COc1ccc(/C=C/C(=O)N2CC[C@@H]3CN(C(=O)c4ccc5[nH]nnc5c4)C[C@@H]3CC2)cc1 [Example 15.09]
33 | 0.034 | O=C(/C=C/c1ccc(OC(F)(F)F)cc1)N1C[C@H]2CCN(C(=O)c3ccc4[nH]nnc4c3)CC[C@H]2C1 [Example 15.10]
34 | 0.013 | N#Cc1ccc(/C=C/C(=O)N2CC[C@@H]3CN(C(=O)c4ccc5[nH]nnc5c4)C[C@@H]3CC2)cc1 [Example 15.11]
35 | 0.006 | O=C(/C=C/c1ccc(OC(F)(F)F)cc1)N1C[C@@H]2CN(C(=O)c3ccc4[nH]nnc4c3)C[C@H]2C1 [Example 15.12]
36 | 0.114 | O=C(CCc1ccc(OC(F)(F)F)cc1)N1C[C@@H]2CN(C(=O)c3ccc4[nH]nnc4c3)C[C@@H]2C1 [Example 15.13]
37 | 0.062 | O=C(/C=C/c1ccc(F)cc1)N1CC[C@@H]2CN(C(=O)c3ccc4[nH]nnc4c3)C[C@@H]2CC1 [Example 15.14]
38 | 0.156 | O=C(/C=C/c1ccccc1)N1CC[C@@H]2CN(C(=O)c3ccc4[nH]nnc4c3)C[C@@H]2CC1 [Example 15.15]
39 | 5.79 | O=C(/C=C/c1ccccn1)N1CC[C@@H]2CN(C(=O)c3ccc4[nH]nnc4c3)C[C@@H]2CC1 [Example 15.16]
40 | 3.95 | O=C(/C=C/c1cccnc1)N1CC[C@@H]2CN(C(=O)c3ccc4[nH]nnc4c3)C[C@@H]2CC1 [Example 15.17]
41 | 0.02 | O=C(/C=C/c1cccc(Cl)c1)N1CC[C@@H]2CN(C(=O)c3ccc4[nH]nnc4c3)C[C@@H]2CC1 [Example 15.18]
42 | 0.009 | O=C(/C=C/c1ccc(Cl)cc1)N1C[C@H]2CCN(C(=O)c3ccc4[nH]nnc4c3)CC[C@H]2C1 [Example 15.19]
43 | 0.049 | O=C(/C=C/c1cccc(OC(F)(F)F)c1)N1C[C@H]2CCN(C(=O)c3ccc4[nH]nnc4c3)CC[C@H]2C1 [Example 15.20]
44 | 0.005 | O=C(/C=C/c1ccc(OC(F)F)cc1)N1CC[C@@H]2CN(C(=O)c3ccc4[nH]nnc4c3)C[C@@H]2CC1 [Example 15.21]
45 | 0.053 | O=C(/C=C/c1cccc(OC(F)(F)F)c1)N1C[C@@H]2CN(C(=O)c3ccc4[nH]nnc4c3)C[C@H]2C1 [Example 15.22]
46 | 0.032 | N#Cc1ccc(/C=C/C(=O)N2C[C@@H]3CN(C(=O)c4ccc5[nH]nnc5c4)C[C@H]3C2)cc1 [Example 15.23]
47 | 0.01 | O=C(/C=C/c1ccc(OC(F)(F)F)cc1)N1C[C@@H]2CN(C(=O)c3ccc4[nH]nnc4c3)C[C@H]2C1 [Example 15.24]
48 | 0.002 | O=C(/C=C/c1cc(Cl)cc(Cl)c1)N1CC[C@@H]2CN(C(=O)c3ccc4[nH]nnc4c3)C[C@@H]2CC1 [Example 15.27]
49 | 4.42 | O=C(/C=C/c1ccncc1)N1CC[C@@H]2CN(C(=O)c3ccc4[nH]nnc4c3)C[C@@H]2CC1 [Example 15.28]
50 | 0.034 | O=C(/C=C/c1ccc(F)cc1F)N1CC[C@@H]2CN(C(=O)c3ccc4[nH]nnc4c3)C[C@@H]2CC1 [Example 15.29]
